Experimental data: PubChem BioAssay (NCI)
Where “and” joins values, the source holds several entries; their conditions need not be identical. Identical values can stand only once.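 Compound exposure: 48 hours, 5 concentrations, 96-well plates. Here, GI50 denotes the concentration required for 50% inhibition of growth. TGI marks complete inhibition of growth.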

Tests used:
Assay in all cases: DTP human tumour cell line panel, 48 h
786-0 renal = tested on: 786-0 renal
CAKI-1 renal = tested on: CAKI-1 renal
DU-145 prostate = tested on: DU-145 prostate
HCC-2998 colon = tested on: HCC-2998 colon
HCT-15 colon = tested on: HCT-15 colon
HT29 colon = tested on: HT29 colon
K-562 leukemia = tested on: K-562 leukemia
KM12 colon = tested on: KM12 colon
NCI-H226 lung = tested on: NCI-H226 lung
SNB-19 CNS = tested on: SNB-19 CNS

Row | Compound | GI50 (786-0 renal) | TGI (786-0 renal) | GI50 (CAKI-1 renal) | TGI (CAKI-1 renal) | GI50 (DU-145 prostate) | TGI (DU-145 prostate) [µM] | GI50 (HCC-2998 colon) [µM] | TGI (HCC-2998 colon) [µM] | GI50 (HCT-15 colon) | TGI (HCT-15 colon) [µM] | GI50 (HT29 colon) | TGI (HT29 colon) [µM] | GI50 (K-562 leukemia) | TGI (K-562 leukemia) | GI50 (KM12 colon) | TGI (KM12 colon) | GI50 (NCI-H226 lung) | TGI (NCI-H226 lung) | GI50 (SNB-19 CNS) | TGI (SNB-19 CNS) [µM]
1 | CCOC(=O)C1=C(C)N(Cc2ccc(Cl)cc2Cl)C2(O)C=CC(=O)C3=C(O)c4ccccc4C(=O)C312 (stereo unspecified) | 3.54 µM | 15.2 µM | 3.31 µM | 15 µM | 7.99 µM | 28.8 | 11.2 | 28.2 | 1.82 µM | 13.5 | 5.04 µM | > 100 | 4.85 µM | > 100 µM | 4.02 µM | 16.8 µM | 3.77 µM | 27.8 µM | 9.02 µM | 78.7
2 | C=C(CO)[C@@H]1CC[C@]2(COC3CCCCO3)CC[C@]3(C)[C@H](CC[C@@H]4[C@@]5(C)C=C(C=O)C(=O)C(C)(C)[C@@H]5CC[C@]43C)[C@@H]12 (stereo partly specified) | 0.185 µM | 0.406 µM | 0.245 µM | 0.7 µM | 0.523 µM | 1.72 | 0.286 | 0.838 | 0.247 µM | 0.718 | 0.327 µM | 1.1 | 0.316 µM | 1.28 µM | 0.555 µM | 1.94 µM | 0.538 µM | 1.47 µM | 0.414 µM | 1.44
3 | NS(=O)(=O)NCCNc1nonc1C(=Nc1ccc(F)c(Br)c1)NO | 48.8 µM | > 100 µM | 33.8 µM | > 100 µM | 51.2 µM | > 100 | 27.4 | 77.5 | 39.4 µM | > 100 | 66 µM | > 100 | 35.4 µM | > 100 µM | 34.8 µM | > 100 µM | 47.7 µM | > 100 µM | 48.2 µM | > 100
4 | NS(=O)(=O)c1ccc(N(/C=C/C(=O)C(F)(F)F)Cc2ccc(Cl)cc2)cc1 | 13.2 µM | 27 µM | 24.4 µM | 72.7 µM | 22.1 µM | 66 | 18.1 | 35.5 | 31.1 µM | 87.2 | 43.9 µM | > 100 | 38.9 µM | > 100 µM | 22.7 µM | 74.5 µM |  |  | 41.9 µM | > 100
5 | CN(CC(=O)Nc1nc2ccccc2[nH]1)S(=O)(=O)c1ccc(Cl)cc1 | > 100 µM | > 100 µM | > 100 µM | > 100 µM | > 100 µM | > 100 | > 100 | > 100 | > 100 µM | > 100 | > 100 µM | > 100 | > 100 µM | > 100 µM | > 100 µM | > 100 µM | > 100 µM | > 100 µM | > 100 µM | > 100
6 | CCC(=O)Nc1ccc(C)c(-c2ccc(C(=O)NCC3CC3)cc2)c1 | > 25 µM | > 25 µM | > 25 µM | > 25 µM | > 25 µM | > 25 | > 25 | > 25 | > 25 µM | > 25 | > 25 µM | > 25 | > 25 µM | > 25 µM | > 25 µM | > 25 µM | > 25 µM | > 25 µM | > 25 µM | > 25
7 | O=C(Nc1cccc(-c2ccc(Cl)c(C(F)(F)F)c2)c1)C1CCN(Cc2cccc3cccnc23)CC1 | 1.7 µM | 3.26 µM | 1.61 µM | 2.97 µM | 1.79 µM | 3.21 | 1.43 | 2.85 | 1.37 µM | 2.79 | 1.21 µM | 3.33 | 1.1 µM | 5.99 µM | 1.8 µM | 3.43 µM | 1.88 µM | 3.89 µM | 1.74 µM | 3.18
8 | C/C(O)=C(\C#N)C(=O)Nc1ccc(C(F)(F)F)cc1 | 34.3 µM | > 100 µM | 5.46 µM | > 100 µM | 46.7 µM | > 100 | 45.2 | > 100 | 5.96 µM | > 100 | 44.6 µM | > 100 | 8.13 µM | > 100 µM | 23.9 µM | > 100 µM | 98 µM | > 100 µM | 24.5 µM | > 100
9 | COc1cc(C2=N/C(=C/c3cccs3)C(=O)O2)cc(OC)c1OC |  | > 100 µM |  | > 100 µM |  | > 100 |  | > 100 |  | > 100 |  | > 100 |  | > 100 µM |  | > 100 µM |  | > 100 µM |  | > 100
10 | Cc1ccc(C(=O)/C(=C\c2ccc([N+](=O)[O-])cc2)S(=O)Cc2ccc(Cl)cc2)cc1 (stereo unspecified) | 1.57 µM | 2.97 µM | 1.81 µM | 4.04 µM | 1.75 µM | 3.21 | 1.82 | 3.36 | 1.61 µM | 3.75 | 1.88 µM | 4.3 |  |  | 2.33 µM | 6.2 µM | 2.81 µM | 11.5 µM | 1.83 µM | 3.68
11 | Cc1ccc(NS(=O)(=O)c2cccc(C#N)c2)c2[nH]cc(C#N)c12 | 12 µM and 7.67 µM | 55.7 µM and > 100 µM | 3.69 µM and 15.7 µM | > 96.8 µM | 23.9 µM and 28.8 µM | > 100 | 25.1 | > 100 | 6.14 µM and 14.1 µM | > 100 | 33.5 µM and 12.5 µM | > 100 | 2.59 µM and 5.08 µM | > 100 µM | > 51.5 µM and 23.2 µM | > 100 µM | 22.5 µM and 25.5 µM | > 96.4 µM | 16.1 µM and 24.6 µM | > 100
12 | CC(C)=CCC/C(C)=C\CCC1(C)OC(=O)C2CC21 (stereo unspecified) | > 100 µM and 17.5 µM | > 100 µM and 32.7 µM |  | > 100 µM and 43 µM |  | > 100 |  | > 100 | 83.8 µM and 24.7 µM | > 100 | 72.8 µM and 34.1 µM | > 100 |  | 48.4 µM and 40.5 µM | 71.2 µM and 24.9 µM | > 100 µM and 62.8 µM | 48.4 µM and 18.8 µM | > 100 µM and 42.6 µM |  | > 100
